{"source": "patent US20240208915A1", "about": "“A SOLID STATE FORM OF TAFAMIDIS AND A PROCESS FOR ITS PREPARATION” (Quimica Sintetica, S.A., priority 2021, published 2024)", "key": {"[1]": {"conditions": "cited from earlier work"}, "[2]": {"assay": "Chemical and physical stability over storage (summary statements)", "from_the_text": "“Storage condition” referred to 2-(3,5-dichlorophenyl)-1,3-benzoxazole-6-carboxylic acid and its salt means that all the forms are stored in a close vessel at room temperature, ambient pressure and at relative humidity (RH) degree not more than 80%."}, "[3]": {"assay": "XRPD pattern after keeping at storage condition in a close vial", "assay_type": "physicochemical", "conditions": "storage condition (room temperature, RH not more than 80%)", "experimental": "(§1) The instruments and methods used to characterize the crystals obtained in the examples are as follows: • X-ray powder diffraction analyses (XRPD) were performed on a Bruker D8 Advance X-ray powder diffractometer at about 25° C. and ambient humidity (e.g. 25-35%), using a Cu Kα tube (40 kV, 40 mA, λ=1.5418 Å) as the X-ray source, equipped with a linear Lynxeye XE-T position sensitive detector set at 250 mm from the sample. A Nickel filter (0.0125 mm thickness) was mounted on the primary beam. Data collection was made in coupled mode, theta-theta configuration over an angular range between at least 3° 2 theta and 40° 2theta and a scan step of 0.02°. Fine powder samples were placed in a flat, thin layer in the 12 mm×0.2 mm cavity of a silicon low background plate fixed on a sample holder fitting an autosampler position. The instrument was previously calibrated by means of NIST SRM 1976b. Data acquisition was performed by means of Bruker Diffraction Measurement Center software; data elaboration was performed by means of Crystal Impact Match! or Bruker Diffrac. EVA software."}, "[4]": {"assay": "Stability studies: XRPD to evaluate any change in crystalline form", "assay_type": "physicochemical", "experimental": "as §1\n(§2) Vials containing 100 mg each of alpha form of present invention are stored at the following conditions, wherein RH is referred to relative humidity: • room Temperature (RT) and 80% RH, open vial • 40° C. and 75% RH, open vial\n(§3) The sample were analysed before the storage (initial data), 8 days, 15 days and 4 weeks using X-ray powder diffractogram (XRPD) to evaluate any change in crystalline form and using HPLC to measure the chemical purity.\n(§4) 700 mg of tafamidis form 4 of obtained according to present invention are stored at the following conditions, wherein RH is referred to relative humidity: • 40° C. and 75% RH, type A container.\n(§5) The samples were analysed before the storage (initial data), after 1 month, 3 months, 6 months using X-ray powder diffractogram (XRPD) to evaluate any change in crystalline form and using HPLC to measure the chemical purity."}, "[5]": {"assay": "Stability studies: HPLC to measure the chemical purity", "assay_type": "physicochemical", "experimental": "as §2, §3, §4, §5"}}, "note": "Read-outs that look alike come from different tables or passages of the source.", "data": [{"smiles": "O=C(O)c1ccc2nc(-c3cc(Cl)cc(Cl)c3)oc2c1", "note": "[amorphous, 2-(3,5-dichlorophenyl)-1,3-benzoxazole-6-carboxylic acid]", "values": [{"measurement": "solid form conversion upon storage", "setting": "[1]; 1 week at 70° C. and 75% relative humidity", "result": "converts into crystalline form 4"}]}, {"smiles": "O=C(O)c1ccc2nc(-c3cc(Cl)cc(Cl)c3)oc2c1", "note": "[form 1, 2-(3,5-dichlorophenyl)-1,3-benzoxazole-6-carboxylic acid]", "values": [{"measurement": "chemical and physical stability (XRPD pattern, degradation)", "setting": "[2]; kept at storage condition", "result": "chemically and physically stable"}, {"measurement": "change of XRPD pattern", "setting": "[3]; 8 months", "result": "does not change its XRPD pattern"}, {"measurement": "thermodynamic stability of the form", "setting": "[1]; room temperature", "result": "thermodynamically stable form"}]}, {"smiles": "O=C(O)c1ccc2nc(-c3cc(Cl)cc(Cl)c3)oc2c1", "note": "[form 4, 2-(3,5-dichlorophenyl)-1,3-benzoxazole-6-carboxylic acid]", "values": [{"measurement": "transformation into a different crystalline form (XRPD)", "setting": "[4]; 40° C., 75% RH, type A container, after 6 months", "result": "no signs of transformation into a different crystalline form"}, {"measurement": "chemical and physical stability", "setting": "[2]; stored for several months at 40° C. and 75% RH", "result": "chemically and physically stable"}, {"measurement": "change of XRPD pattern", "setting": "[3]; 10 months", "result": "does not change its XRPD pattern"}, {"measurement": "thermodynamic stability of the form", "setting": "[1]; high temperature", "result": "more stable"}]}, {"smiles": "O=C(O)c1ccc2nc(-c3cc(Cl)cc(Cl)c3)oc2c1", "note": "[form I, 2-(3,5-dichlorophenyl)-1,3-benzoxazole-6-carboxylic acid]", "values": [{"measurement": "solid form conversion upon drying", "setting": "[1]; vacuum dryer at 100-160° C. (WO 2020/232325, examples 16 to 20)", "result": "convert into form 4"}]}, {"smiles": "O=C(O)c1ccc2nc(-c3cc(Cl)cc(Cl)c3)oc2c1", "note": "[form alpha, 2-(3,5-dichlorophenyl)-1,3-benzoxazole-6-carboxylic acid]", "values": [{"measurement": "transformation into a different crystalline form (XRPD)", "setting": "[4]; 40° C., 75% RH, open vial, after 4 weeks", "result": "no signs of transformation"}, {"measurement": "transformation into a different crystalline form (XRPD)", "setting": "[4]; room temperature, 80% RH, open vial, after 4 weeks", "result": "no signs of transformation"}, {"measurement": "chemical and physical stability (polymorphic form, chemical purity)", "setting": "[2]; storage between 15 to 60° C. for several weeks at different degree of humidity", "result": "chemically and physically stable"}, {"measurement": "chemical purity by HPLC versus initial profile", "setting": "[5]; 40° C., 75% RH, open vial, up to 4 weeks", "result": "does not present a significant worsening of the purity"}, {"measurement": "chemical purity by HPLC versus initial profile", "setting": "[5]; 40° C., 75% RH, type A container, up to 6 months", "result": "does not present a significant worsening of the purity"}, {"measurement": "chemical purity by HPLC versus initial profile", "setting": "[5]; room temperature, 80% RH, open vial, up to 4 weeks", "result": "does not present a significant worsening of the purity"}]}]}
